Measurements taken from US9006185B2, “Use of cell-permeable peptide inhibitors of the JNK signal transduction pathway for the treatment of various diseases” (Xigen Inflammation Ltd., priority 2008, dated 2015).
Like-named read-outs stand apart in the source and are kept apart here. Square brackets hold non-standard residues; d marks the D form. Ends that are not written are not given here.

Key:
gerbil = details: transient global ischemia; cited from earlier work
[1] = tested on: primary embryonic cultures and differentiated PC12 cells; details: after trophic withdrawal; cited from earlier work
[2] = tested on: chick embryonic dorsal root ganglion, sympathetic, ciliary and motor neurons; details: cited from earlier work
TC-3 cells [3] = experiment: Cellular import of fluorescein-labeled TAT and TAT-IB1(s) peptides; format: cell-based
Experimental: The ability of the L- and D-enantiomeric forms of TAT and TAT-IB1(s) peptides (“TAT-IB peptides”) to enter cells was evaluated. L-TAT, D-TAT, L-TAT-IB1(s), and D-TAT-IB1(s) peptides [SEQ ID NOs: 5, 6, 9 and 12, respectively] were labeled by N-terminal addition of a glycine residue conjugated to fluorescein. Labeled peptides (1 μM) were added to TC-3 cell cultures, which were maintained as described in Example 3. At predetermined times cells were washed with PBS and fixed for five minutes in ice-cold methanol-acetone (1:1) before being examined under a fluorescence microscope. Fluorescein-labeled BSA (1 μM, 12 moles/mole BSA) was used as a control.
Little to no signal was present at 48 hours.
Fluorescent signals from these all-D retro-inverso peptides were still very strong 1 week later, and the signal was only slightly diminished at 2 weeks post treatment.

JNK = details: JBDs; cited from earlier work
TC-3 cells [4] = experiment: IL-1 induced pancreatic beta-cell death, peptide treatment; format: cell-based; details: one single addition 1 μM, two days of incubation with IL-1
Experimental: Inhibition of IL-1 induced pancreatic beta-cell death by the D-TAT-IB1(s) peptide was analyzed. TC-3 cells were incubated as described above for 30 minutes with one single addition of the indicated peptides (1, μM), then IL-1 (10 ng/ml) was added.
Apoptotic cells were then counted after two days of incubation with IL-1 by use of Propidium Iodide and Hoechst 33342 nuclear staining. A minimum of 1,000 cells were counted for each experiment. Standard Error of the Means (SEM) are indicated, n=5.
Long term inhibition of IL-1P induced cell-death by the D-TAT-IB1 peptide was also analyzed. TC-3 cells were incubated as above for 30 minutes with one single addition of the indicated peptides (1 μM), then IL-1 (10 ng/ml) was added, followed by addition of the cytokine every two days. Apoptotic cells were then counted after 15 days of incubation with IL-1 by use of propidium iodide and Hoechst 33342 nuclear staining. […] A minimum of 1.000 cells were counted for each experiment.

[5] = fluorescein labeled, 1 μM, TC-3 cells

N#CC(c1ccnc(NCCc2cccnc2)n1)c1nc2ccccc2s1 (centres unmarked) [AS601245]
delayed loss of hippocampal CA1 neurons (gerbil): significant protection against the delayed loss of hippocampal CA1 neurons

CCSCc1ccc2c(c1)c1c3c(c4c5cc(CSCC)ccc5n5c4c1n2[C@H]1C[C@](O)(C(=O)OC)[C@]5(C)O1)CNC3=O [CEP-1347]
neuronal survival [1]: promotes neuronal survival at dosages that inhibit activation of the c-Jun amino-terminal kinases
long term survival of cultured neurons [2]: promote long term-survival

Fluorescein-labeled BSA: fluorescein labeled bovine serum albumin, 12 moles fluorescein/mole BSA, control [reference compound]
entry into cells (fluorescence microscopy) (TC-3 cells [3]): did not enter the cells

GRKKRRQRRR (Description of sequence Peptide L-TAT (see Table 1))
entry into cells (fluorescence microscopy) (TC-3 cells [3]; [5]): efficiently and rapidly (less than five minutes) entered cells

GRKKRRQRRRPPRPKRPTTLNLFPQVPRSQD [L-TAT-IB1(s)]
entry into cells (fluorescence microscopy) (TC-3 cells [3]; [5]): efficiently and rapidly (less than five minutes) entered cells

IPSPSVEEPHKHRPTTLRLTTLGAQDS (Description of sequence Peptide IB2-long (see Table 1))
efficiency in binding JNK relative to c-Jun or ATF2 (JNK): approximately 100 fold

PGTGCGDTYRPKRPTTLNLFPQVPRSQDT (Description of sequence peptide IB1-long (see Table 1))
efficiency in binding JNK relative to c-Jun or ATF2 (JNK): approximately 100 fold

RRRQRRKKRG (D-amino acids; Description of sequence Peptide D-TAT (see Table 1))
entry into cells (fluorescence microscopy) (TC-3 cells [3]): efficiently and rapidly (less than five minutes) entered cells
stability inside the cells (TC-3 cells [3]): extremely stable inside the cells

TDQSRPVQPFLNLTTPRKPRYTDPPRRRQRRKKRG (H-[dT][dD][dQ][dS][dR][dP][dV][dQ][dP][dF][dL][dN][dL][dT][dT][dP][dR][dK][dP][dR][dY][dT][dD][dP][dP][dR][dR][dR][dQ][dR][dR][dK][dK][dR]G-OH) [D-TAT-IB1]
IL-1 induced apoptosis (TC-3 cells [4]): decreased IL-1 induced apoptosis to a similar extent as L-TAT-IB peptides
